Results taken from patent publication US20130209582A1, “HYDROGEN IODIDE-[…] FOOD AND HYDROGEN IODIDE-CONTAINING DRUG, AND METHOD FOR PRODUCING SAME” (priority 2010, published 2013).

Assay: Gastrointestinal absorption and retention in the thyroid gland after taking hydrogen iodide into the body
Format: in vivo
Details: through gastrointestinal absorption
Description: When taking hydrogen iodide into the body, the hydrogen iodide reaches to the thyroid gland within 30 minutes through gastrointestinal absorption. Since the hydrogen iodide is retained in the thyroid gland for about two hours, it is preferable to take the health food or the pharmaceutical product every two hours in a serious case. Moreover, it is preferable to take them not in large quantities at one time, but in small quantities frequently on an empty stomach.

Question: For `I` [hydrogen iodide], which “time to reach the thyroid gland” value is on record?
Answer: The value was at most 30 min.
